Measured values reported in PubChem BioAssay AID743029 (The Scripps Research Institute Molecular Screening Center, 2013).

Key:
Assay in all cases: CYP450 isoform inhibition, late-stage follow-up, ADME assay for V1a-R antagonist project, biochemical, LC-MS (AID 743029)
[1] = biological target: Cytochrome P450 1A2 (Homo sapiens) (UniProt P05177); details: human CYP isoforms, marker substrate metabolism, CYP1A2, at 10 µM, stronger effect = higher value
[2] = biological target: Cytochrome P450 2C9 (Homo sapiens) (UniProt P11712); details: human CYP isoforms, marker substrate metabolism, CYP2C9, at 10 µM, stronger effect = higher value
[3] = biological target: Cytochrome P450 2D6 (Homo sapiens) (UniProt P10635); details: human CYP isoforms, marker substrate metabolism, CYP2D6, at 10 µM, stronger effect = higher value
[4] = biological target: Cytochrome P450 3A4 (Homo sapiens) (UniProt P08684); details: human CYP isoforms, marker substrate metabolism, CYP3A4, at 10 µM, stronger effect = higher value
Cytochrome P450 3A4 (Homo sapiens), sequence (P08684 whole entry, looked up, canonical isoform): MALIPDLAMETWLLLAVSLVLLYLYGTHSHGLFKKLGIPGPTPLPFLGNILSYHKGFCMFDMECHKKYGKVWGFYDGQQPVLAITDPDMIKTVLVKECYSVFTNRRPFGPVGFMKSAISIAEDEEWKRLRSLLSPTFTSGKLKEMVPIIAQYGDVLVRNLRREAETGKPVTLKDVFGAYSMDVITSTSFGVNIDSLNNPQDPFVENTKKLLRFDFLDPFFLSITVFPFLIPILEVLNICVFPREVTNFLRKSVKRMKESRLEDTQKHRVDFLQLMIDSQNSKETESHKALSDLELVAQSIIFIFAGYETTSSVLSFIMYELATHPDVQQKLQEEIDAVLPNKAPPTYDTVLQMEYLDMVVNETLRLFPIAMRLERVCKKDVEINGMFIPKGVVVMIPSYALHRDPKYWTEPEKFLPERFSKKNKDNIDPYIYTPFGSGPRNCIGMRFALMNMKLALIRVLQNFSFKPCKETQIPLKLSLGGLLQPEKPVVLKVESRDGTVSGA

Cytochrome P450 2C9 (Homo sapiens), sequence (P11712 whole entry, looked up, canonical isoform): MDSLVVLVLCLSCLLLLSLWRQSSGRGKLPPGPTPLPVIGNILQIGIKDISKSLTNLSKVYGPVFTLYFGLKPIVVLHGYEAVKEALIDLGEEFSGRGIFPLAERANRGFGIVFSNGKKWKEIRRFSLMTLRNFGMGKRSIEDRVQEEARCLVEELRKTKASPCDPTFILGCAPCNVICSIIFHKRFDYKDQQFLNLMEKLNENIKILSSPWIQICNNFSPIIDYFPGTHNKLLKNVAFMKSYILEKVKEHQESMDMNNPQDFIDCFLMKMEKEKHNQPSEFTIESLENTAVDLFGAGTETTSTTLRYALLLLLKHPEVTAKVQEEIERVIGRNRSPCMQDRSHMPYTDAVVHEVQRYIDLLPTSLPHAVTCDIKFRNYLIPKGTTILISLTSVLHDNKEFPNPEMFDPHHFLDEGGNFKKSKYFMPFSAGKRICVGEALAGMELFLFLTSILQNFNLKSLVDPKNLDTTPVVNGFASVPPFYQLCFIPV
Cytochrome P450 2D6 (Homo sapiens), sequence (P10635 whole entry, looked up, canonical isoform): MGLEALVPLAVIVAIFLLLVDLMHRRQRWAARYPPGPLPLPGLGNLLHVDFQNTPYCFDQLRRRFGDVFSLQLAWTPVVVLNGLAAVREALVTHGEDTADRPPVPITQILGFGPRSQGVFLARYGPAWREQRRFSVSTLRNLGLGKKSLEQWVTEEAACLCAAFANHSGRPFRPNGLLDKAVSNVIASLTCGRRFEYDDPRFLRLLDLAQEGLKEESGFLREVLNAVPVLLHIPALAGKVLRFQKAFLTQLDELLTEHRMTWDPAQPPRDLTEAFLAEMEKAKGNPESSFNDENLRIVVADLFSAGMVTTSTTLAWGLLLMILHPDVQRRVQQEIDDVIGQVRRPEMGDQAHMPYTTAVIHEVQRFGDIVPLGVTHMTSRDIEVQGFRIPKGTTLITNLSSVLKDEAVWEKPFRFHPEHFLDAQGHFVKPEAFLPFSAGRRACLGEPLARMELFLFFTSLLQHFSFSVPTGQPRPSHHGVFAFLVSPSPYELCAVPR
Cytochrome P450 1A2 (Homo sapiens), sequence (P05177 whole entry, looked up, canonical isoform): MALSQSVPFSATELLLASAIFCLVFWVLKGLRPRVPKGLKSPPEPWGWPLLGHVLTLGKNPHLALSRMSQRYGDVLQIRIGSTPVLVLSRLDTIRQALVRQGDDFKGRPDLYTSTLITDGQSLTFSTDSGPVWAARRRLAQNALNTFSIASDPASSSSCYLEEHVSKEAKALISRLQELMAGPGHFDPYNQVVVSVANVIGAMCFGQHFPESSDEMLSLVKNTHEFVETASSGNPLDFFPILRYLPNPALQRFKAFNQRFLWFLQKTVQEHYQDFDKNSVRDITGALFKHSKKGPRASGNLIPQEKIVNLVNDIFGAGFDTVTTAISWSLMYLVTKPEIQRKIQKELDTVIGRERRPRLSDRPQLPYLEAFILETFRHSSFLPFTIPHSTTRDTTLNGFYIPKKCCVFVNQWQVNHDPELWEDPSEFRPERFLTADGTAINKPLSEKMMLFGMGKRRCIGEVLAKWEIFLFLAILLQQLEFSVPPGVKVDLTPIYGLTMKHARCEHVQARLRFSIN

With `O=C(C1CCN(c2ccc(Cl)cn2)CC1)N(CC1CC1)c1ccc(Cl)cc1` the inhibition [1] was -19%, the inhibition [2] was -6% and the inhibition [3] was 2%. For the same molecule, the inhibition [4] was -5%.
